According to patent publication US12629379B2, “Pharmaceutical composition for preventing, suppressing, or treating symptom associated with allergic reaction” (Nippon Chemiphar Co., Ltd., priority 2020, dated 2026):

Tests used:
[1] = tested on: IgE-sensitized bone marrow-derived mast cells (BMMCs); assay: Degranulation reaction (β-hexosaminidase release rate) of IgE-sensitized BMMCs costimulated with DNP-HSA and ATP; format: cell-based, mice; conditions: for β-hexosaminidase release rate compared to the control BMMCs / β-hexosaminidase release rate compared to the control BMMCs (dose dependence): group (4): costimulation with ATP and DNP-HSA (10 ng/ml); for β-hexosaminidase release rate compared to the control BMMCs (dose dependence): preincubation with compound 1, 3, 10 μM
Experimental: (§1) The degranulation reaction was performed by obtaining a degranulation rate using a β-hexosaminidase release rate as an index. The β-hexosaminidase release rate was measured as in the section (Degranulation Experiment) below.
Bone marrow was collected from femora of male C57BL/6J mice (7 to 8 weeks old, produced by Japan SLC, Inc). Red blood cells were hemolyzed, and culture was performed in a medium containing 10% fetal bovine serum (FBS), penicillin (100 unit/ml), streptomycin (100 μg/ml), and recombinant mouse IL-3 (10 ng/ml, manufactured by PeproTech, Inc.) for 14 days. Stem cell factor (SCF) (10 ng/ml) was added to the medium from Day 15, and the culture was performed for 35 to 42 days to be used for the experiment. Whether the cells were differentiated into mast cells was confirmed by the degrees the of c-KIT and FcεRI expressions. The confirmation was performed by using FACSCant II (manufactured by BD Biosciences).
(§2) Anti-DNP-IgE antibody (clone: SPE-7, manufactured by Sigma-Aldrich, Inc.) was added to the BMMC culture solution so that the concentration reached 50 ng/ml, and the BMMCs were sensitized overnight. To be used in the experiment, the BMMCs were washed with PBS(−) and suspended in Krebs Ringer-HEPES Buffer (NaCl 130 mM, KCl 4.7 mM, NaHCO34.0 mM, KH2P4 1.2 mM, Glucose 11.5 mM, HEPES 10 mM, and CaCl2·H2O 1.8 mM) so that the concentration reached 1×10^6 cell/ml.
Then, the BMMCs were each set up into the following 4 groups. • (1) A group in which nothing was added to the BMMCs, • (2) a group in which only ATP was added to the BMMCs, • (3) a group in which only DNP-HSA (10 ng/ml) was added to the BMMCs as an antigen, and • (4) a group in which a mixed solution of ATP and DNP-HSA (10 ng/ml) was added to the BMMCs at once.
Each of the 4 groups was stimulated at 37° C. for 5 minutes and rapidly cooled on ice, and then centrifugation was performed to stop the reaction. After collecting the supernatant, precipitated cells were lysed with 0.1% triton X-100. The supernatant and the cell lysis solution (50 μL) were mixed with 10 mM 4-Nitrophenyl N-acetyl-p-D-glucosaminide (manufactured by Sigma-Aldrich, Inc.) which was a β-hexosaminidase substrate/50 mM citrate buffer (pH 4.5, 50 μL), and the mixture was incubated at 37° C. for 30 minutes. 50 mM carbonate buffer (pH 10.0, 100 μL) was added to stop the reaction, and absorbance was measured at 405/655 using an absorbance microplate reader Sunrise (manufactured by Tecan Trading AG). The β-hexosaminidase release rate was obtained from the following formula. β-hexosaminidase release rate=Absorbance of supernatant/(Absorbance of supernatant+absorbance of cell lysis station)×100
Note that, in the present Example, the numbers of specimens were all n=3, and the significant differences in the present Example are indicated with “*” or “**” in FIGS. 1 and 2, “*” indicating P<0.05, and “**” P<0.01. In addition, “*” or “**” in FIGS. 1 and 2 each indicate that there was a significant difference as a result of comparison with the control in the same group.

PSA model mice = assay: Passive systemic anaphylaxis (PSA) in IgE-sensitized mice, body temperature change; format: in vivo; conditions: for body temperature decrease-suppressing effect: 10 mg/kg intraperitoneally before tail vein DNP-HSA, vs vehicle group
Experimental: The mice were sensitized by tail vein administration of 10 μg/200 μL IgE (physiological saline) under anesthesia.
Male C57BL/6J mice (7 to 8 or 10 to 11 weeks old, produced by Japan SLC, Inc) were used as the mice.
The DNP-HSA administration was arranged to be performed 24 hours after the preparation of the IgE-sensitized mice.
Moreover, with the rest of the IgE-sensitized mice, a group administered with physiological saline as a control for Compound A (vehicle group) and a group administered with the solvent B as a control for Compound B (vehicle group) were prepared.
PSA model mice were prepared, and anaphylaxis was induced by tail vein administration of 100 ng/200 μL (physiological saline) DNP-HSA to unanesthetized mice 24 hours after the preparation of the IgE-sensitized mice.
Inducing systemic anaphylaxis causes a rapid decrease in the body temperatures of the PSA model mice.
The measurement of the body temperature change was performed by measuring, with BAT-7001H Thermometer (Physitemp Instruments, LLC.), the rectal temperatures every 5 minutes from 0 minutes to 60 minutes after the administration, the 0 minutes being defined as the time of the DNP-HSA administration.

BMMCs = assay: IL-6, IL-13 and TNF-α release by stimulated BMMCs (ELISA); format: cell-based, mice; conditions: 10 μM, pretreatment 5 minutes; stimulation 3 hours
Experimental: BMMCs were washed with a fresh culture solution and subjected to reactions in the presence and absence of a stimulating agent (100 μM ATP, 1 μM PGE2, 100 μM ATP+1 μM PGE2) for 3 hours.
The grouping is as shown below and matches the numbers in parentheses indicated in FIGS. 7 to 9. • (1) A group in which nothing was added to the BMMCs, • (2) a group in which only ATP was added to the BMMCs, • (3) a group in which only PGE2 was added to the BMMCs, and • (4) a group in which a mixed solution of ATP and PGE2 was added to the BMMCs at once.
Cytokines released into the reaction solution (interleukin (IL)-6, IL-13, and TNF-α) were measured using ELISA kits (Invitrogen Corporation).

IgE-sensitized BMMCs = assay: Degranulation reaction (β-hexosaminidase release rate) of IgE-sensitized BMMCs costimulated with PGE2 and ATP; format: cell-based, mice
Experimental: as §1
Setting up of BMMCs was performed according to the method described in Example 2.
as §2, with “NaHCO3 4.0” for “NaHCO34.0”
Then, the BMMCs were each set up into the following 6 groups. Note that the numbers in the parentheses below match the numbers in parentheses in FIG. 6. • (1) A group in which nothing was added to the BMMCs, • (2) a group in which only ATP was added to the BMMCs, • (3) a group in which only PGE2 (1 μM) was added to the BMMCs, • (4) a group in which a mixed solution of ATP and PGE2 (1 μM) was added to the BMMCs at once, • (5) a group in which only DNP-HSA (10 ng/ml) was added to the BMMCs as an antigen, and • (6) a group in which a mixed solution of ATP and DNP-HSA (10 ng/ml) was added to the BMMCs at once.
Each of the 6 groups was stimulated at 37° C. for 5 minutes and rapidly cooled on ice, and then centrifugation was performed to stop the reaction. After collecting the supernatant, precipitated cells were lysed with 0.1% triton X-100. […] 50 mM carbonate buffer (pH 10.0, 100 μL) was added to stop the reaction, and absorbance was measured at 405/655 using an absorbance microplate reader Sunrise (manufactured by Tecan Trading AG). The β-hexosaminidase release rate was obtained from the following formula. β-hexosaminidase release rate=Absorbance of supernatant/(Absorbance of supernatant+absorbance of cell lysis station)×100 (Test Result) […]

PCA model mice = assay: Passive cutaneous anaphylaxis (PCA) in IgE-sensitized mice, Evans blue in the auricle; format: in vivo
Experimental: The mice were sensitized by subcutaneously administering 100 ng/20 μL IgE into the right ears under anesthesia. Only physiological saline was administered into the left ears.
Male C57BL/6J mice (10 to 11 weeks old, produced by Japan SLC, Inc) were used as the mice.
Note that the DNP-HSA administration was performed by tail vein administration and was arranged to be performed 24 hours after the preparation of the IgE-sensitized mice.
Note that the concentration of 65% Kolliphor EL was prepared using ethanol and a small amount of sterile water for injection (or water). In addition, the DNP-HSA administration was arranged to be performed 24 hours after the preparation of the IgE-sensitized mice.
Moreover, with the rest of the IgE-sensitized mice, a group administered with physiological saline as a control for Compound A (vehicle group) and a group administered with the solvent B as a control for Compound B (vehicle group) were prepared. […]
The PCA model mice were euthanized 30 minutes after the DNP-HSA administration, the auricles were collected, and the weights of the auricles were measured. […] Absorbance (620 nm) of the extracted Evans blue and the calibration curve was measured using the absorbance microplate reader Sunrise (Tecan Trading AG), and the concentrations were calculated.

[2] = 10 mg/kg intraperitoneally 30 minutes before DNP-HSA

O=C1CC(=O)N(c2cccc(-c3noc(=S)[nH]3)c2)c2ccc3ccccc3c2N1.[Na] [Compound A17, 5-[3-(5-thioxo-4H-[1,2,4]oxadiazol-3-yl)phenyl]-1H-naphtho[1,2-b][1,4]diazepine-2,4(3H,5H)-dione sodium salt]
β-hexosaminidase release rate compared to the control BMMCs ([1]; all concentrations of 1 μM, 3 μM, and 10 μM): significantly decreased
β-hexosaminidase release rate compared to the control BMMCs (dose dependence) [1]: decreased in a dose-dependent manner
β-hexosaminidase release rate ([1]; groups (1) to (3) not subjected to costimulation with ATP and DNP-HSA (10 ng/ml), compound 1, 3 or 10 μM): lower than 10%
persistence of the body temperature decrease-suppressing effect (PSA model mice; [2]): > 60 min
time over which there was a significant difference in the body temperature decrease-suppressing effect (PSA model mice; [2]): at least 35 minutes
body temperature decrease-suppressing effect (PSA model mice): significant body temperature decrease-suppressing effect
ATP-induced increase in IL-6 release (BMMCs): suppressed
ATP-induced increase in IL-13 release (BMMCs): suppressed
ATP-induced increase in TNF-α release (BMMCs): suppressed
β-hexosaminidase release rate compared to the control BMMCs (IgE-sensitized BMMCs; group (4): costimulation with ATP (0.1 mM) and PGE2 (1 μM), all concentrations of 1 μM, 3 μM, and 10 μM): significantly decreased
β-hexosaminidase release rate compared to the control BMMCs (dose dependence) (IgE-sensitized BMMCs; group (4): costimulation with ATP (0.1 mM) and PGE2 (1 μM), preincubation with compound 1, 3, 10 μM): decreased in a dose-dependent manner
β-hexosaminidase release rate (IgE-sensitized BMMCs; groups (1) to (3) not subjected to costimulation with ATP (0.1 mM) and PGE2, compound 1, 3 or 10 μM): lower than 5%

O=C1CC(=O)N(c2ccc(NC(=O)c3ccccc3I)cc2)c2ccc3ccccc3c2N1 [Compound B48, 5-[4-(2-iodobenzoylamino)phenyl]-1H-naphtho[1,2-b][1,4]diazepine-2,4(3H,5H)-dione]
increase in Evans Blue per auricle weight (PCA model mice; 10 mg/kg intraperitoneally 1 hour before tail vein DNP-HSA, vs vehicle group): significantly suppressed
increase in Evans Blue per auricle weight (PCA model mice; 10 mg/kg orally administered, not shown in the drawing): significantly suppressed
β-hexosaminidase release rate compared to the control BMMCs ([1]; concentrations of 3 μM and 10 μM): significantly decreased
β-hexosaminidase release rate compared to the control BMMCs (dose dependence) [1]: decreased in a dose-dependent manner
body temperature decrease-suppressing effect (PSA model mice): significant body temperature decrease-suppressing effect
